Series [1] deals with Hs0578t cells. The experiment in a line: growth inhibition of estrogen negative human breast cancer cell line Hs0578t in culture. It counts as cell-based. To be noted: for inhibition of Hs0578t cell growth, by concentration / IC50: 10^-15 M to 10^-5 M; for inhibition of Hs0578t cell growth, by concentration: inhibitory = proliferation decreased by 20% or more vs controls; for comparative assessment of potency / maximal inhibition, Hs0578t cell growth: summary statement; for IC50: Homo sapiens, 120 h, approximate, estimated from manually fitted best fit curve, cell counts five days after seeding. As to the method:
(§1) The above examples were tested for their ability to inhibit the growth of both estrogen positive (MCF-7) and estrogen negative (Hs0578t) human breast cancer cell lines in culture. […] MCF-7 cells were maintained in Dulbecco's modified Eagle's medium (DMEM), supplemented with 10% fetal bovine serum (FBS), penicillin (10,000 units/ml) and streptomycin (10 mg/ml) at 37° C. in a humidified atmosphere containing 5% CO2. Hs0578t cells were maintained under similar conditions, however DMEM containing high glucose was used and 10 ug/ml of insulin was added to the medium. Prior to each experiment, cells from stock flasks were suspended by treatment with 0.2% EDTA in phosphate buffered saline (pH 7.3). The cells were then centrifuged at 1000 rpm for 7 minutes, then resuspended in fresh medium and counted on a hemocytometer. Cells were adjusted to a density of 3.0×10^6 /plate in 5 mls of supplemented plating medium. After 5 hours, the plating medium was replaced with fresh medium containing either melatonin or the above examples in concentrations ranging from 10^-15 M to 10^-5 M. These compounds were initially dissolved in ethanol and diluted to the appropriate final concentration with DMEM; the final concentration of ethanol per plate was 0.005%. Control cells were exposed to the ethanol vehicle alone (0.005%). Five days after initial seeding, the cells were resuspended with PBS-EDTA and counted on a hemocytometer to determine the total cell counts per plate. Each experiment was run using triplicate plates for each concentration of melatonin or above example as well as the vehicle controls. Cell growth in each of the experimental plates was expressed as a percent of control growth (100%). A given concentration of either an above example or of melatonin was considered to be inhibitory if it decreased cell proliferation by 20% or more as compared with controls. Since most of the dose-response curves were irregular, the approximate IC50 for each example was estimated from a best fit (manually fitted) curve spanning from the 100% control growth level to the maximal inhibitory concentration of that example. Effects of the above examples on estrogen receptor positive and estrogen receptor negative human breast cancer cell lines (MCF-7 and Hs0578t, respectively) are summarized in FIGS. 1-15, and discussed below. FIGS. 1-6 summarize effects on the MCF-7 cell line, while FIGS. 7-15 describe effects on the Hs0578t cell line.

In series [2] the test system is MCF-7 cells. Description: growth inhibition of estrogen positive human breast cancer cell line MCF-7 in culture. The series is classed as cell-based. To be noted: for inhibition of MCF-7 cell growth, by concentration: 10^-15 M to 10^-5 M, inhibitory = proliferation decreased by 20% or more vs controls; for comparative assessment of potency / maximal inhibition, MCF-7 cell growth: summary statement; for potency relative to melatonin (times more potent), MCF-7 cell growth: compared with melatonin IC50. As to the method: as §1

For series [3] the following is noted: Frohn et al.; Clemens et al.; cited from earlier work.
For series [4], the system named is Hs0578t cells. The following applies: reference molecule, known activity; high concentrations; cited from earlier work.
The subject of series [5] is MCF-7 cells. The following applies: reference molecule, known activity; cited from earlier work.
The subject of the next series is mammary tumors. To be noted: melatonin administration; cited from earlier work.
In the next series the test system is frog skin. The following applies: Heward and Hadley 1975; cited from earlier work.
A further series relates to chicken retina. To be noted: Dubocovich 1984; cited from earlier work.

A word on the IC50: it is the concentration that gives 50% inhibition.

Each structure is given as a SMILES string. “Also recorded” adds a separate entry of the source.

In the case of `O=C(NCCc1c[nH]c2ccccc12)OCc1ccccc1` [Example #2, N-Benzyloxycarbonyltryptamine], in the series with Hs0578t cells [1], the “inhibition of Hs0578t cell growth, by concentration” value (“inhibition of Hs0578t cell growth” for short) was “inhibits Hs0578t cell growth at 10^-11 M and 10^-9 M”; the “comparative assessment of potency / maximal inhibition, Hs0578t cell growth” value was “highly potent inhibitor of both cell lines, but also induces in both a substantial inhibitory response at low concentrations”. In addition, in the series on MCF-7 cells [2], the “inhibition of MCF-7 cell growth, by concentration” value (“inhibition of MCF-7 cell growth” for short) was “inhibition of MCF-7 cell growth at all concentrations for Examples #2 and 9, with the exceptions of Example #2 at 10^-13 M”; the “comparative assessment of potency / maximal inhibition, MCF-7 cell growth” value is given as “elicits the best maximal inhibitory response; also recorded: highly potent inhibitor of both cell lines, but also induces in both a substantial inhibitory response at low concentrations”.
With `CC(=O)NCCc1c(Cc2ccc(C)cc2)[nH]c2ccccc12` [Example #10, 2-(4-Tolylmethyl)-3-Ethylacetamidoindole], the “inhibition of Hs0578t cell growth” value with Hs0578t cells [1] is “no inhibition of Hs0578t cell growth was observed”. Further, the “inhibition of MCF-7 cell growth” value with MCF-7 cells [2] was “inhibits MCF-7 cell growth at 10^-15 M, 10^-13 M, and 10^-11 M”.
Take `CC(=O)NCCc1c(Cc2ccccc2)[nH]c2ccccc12` [Example #8, 2-Benzyl-3-Ethylacetamidoindole]: the IC50 in the series with Hs0578t cells [1] was approximately 0.1 nM.
For the molecule `CC(=O)NCCn1c(C)ccc1C` [Example #1], the “stimulation of Hs0578t cell growth” value in the series on Hs0578t cells [1] (10^-9 M) was “cell growth is actually stimulated at 10^-9 M”. In the series with Hs0578t cells [1], the “inhibition of Hs0578t cell growth” value was “inhibition of Hs0578t cell growth only at 10^-5 M” and the IC50 was approximately 6 nM. In the series on MCF-7 cells [2], the “inhibition of MCF-7 cell growth” value was “all concentrations except 10^-11 M and 10^-7 M inhibited MCF-7 cell growth”.
Turning to `COc1cc2c(CCNC(C)=O)c(C)[nH]c2c(Cl)c1Cl` [2-methyl-6,7-dichloromelatonin], the metabolic stability result in series [3] is given as “improved metabolic stability”.
For the molecule `CC(=O)N1CCc2c([nH]c3ccccc23)C1` [Example #6, 2-N-Acetyl-1,2,3,4-Tetrahydro-β-Carboline], in the series on MCF-7 cells [2], the “inhibition of MCF-7 cell growth” value was “All concentrations except 10^-13 M and 10^-5 M were inhibitory to MCF-7 cell growth”; the “comparative assessment of potency / maximal inhibition, MCF-7 cell growth” value was “appears to be the most potent inhibitor of MCF-7 cell growth”.
With `COc1ccc2[nH]cc(CCNC(C)=O)c2c1` [melatonin, 5-methoxy-N-actyltryptamine], in the series on Hs0578t cells [1], the “inhibition of Hs0578t cell growth” value is listed as “no inhibitory effect in most experiments”. In addition, the “inhibition of growth of estrogen negative cell lines such as Hs0578t” value in the series on Hs0578t cells [4] is recorded as “at high concentrations, can inhibit estrogen negative cell lines such as Hs0578t”. Also, the “inhibition of growth of estrogen positive cell lines” value in the series with MCF-7 cells [5] is “known to inhibit growth of estrogen positive cell lines”. The “effect on mammary carcinogenesis” value with mammary tumors is “melatonin administration has been shown to inhibit”.
Consider `CCC(=O)NCCc1c(Cc2ccccc2)[nH]c2ccccc12` [Example #5, 2-Benzyl-N-Propionyltryptamine], for which, in the series on Hs0578t cells [1], the “inhibition of Hs0578t cell growth” value was “no inhibition of Hs0578t cell growth was observed”. Further, in the series on MCF-7 cells [2], the “concentration at which the maximal effect was seen (MCF-7)” value is 10^-5 M; the “inhibition of MCF-7 cell growth” value is “inhibited cell growth at all concentrations except 10^-13 M, 10^-11 M and 10^-7 M”.
As for `CC(=O)NCCc1c[nH]c2ccc(O)cc12` [N-acetylserotonin], in the series on frog skin, the “melatonin blocking activity (frog skin lightening)” value is “melatonin blocking activity”.
As to `CC(=O)NCCc1c(Cc2cccc3ccccc23)[nH]c2ccccc12` [Example #9], in the series on Hs0578t cells [1], the “inhibition of Hs0578t cell growth” value is “inhibits Hs0578t cell growth at 10^-5 M and 10^-7 M”; the concentration for half-maximal inhibition (IC50) is approximately 4 nM; the “comparative assessment of potency / maximal inhibition, Hs0578t cell growth” value was “shows the best maximal inhibition of growth”. In the series on MCF-7 cells [2], the “inhibition of MCF-7 cell growth” value was “inhibition of MCF-7 cell growth at all concentrations for Examples #2 and 9, with the exceptions of Example #2 at 10^-13 M and Example #9 at 10^-13 M and 10^-5 M”.
Consider `COc1ccc(Cc2[nH]c3ccccc3c2CCNC(C)=O)cc1` [Example #11, 2-(4-Methoxyphenyl)Methyl-3-Ethylacetamidoindole], for which the “inhibition of Hs0578t cell growth” value with Hs0578t cells [1] is “no inhibition of Hs0578t cell growth was observed”. In the series with MCF-7 cells [2], the “inhibition of MCF-7 cell growth” value was “inhibits MCF-7 cell growth at 10^-15 M and 10^-13 M”; the “comparative assessment of potency / maximal inhibition, MCF-7 cell growth” value was “not only a highly potent compound, but it elicits an impressive maximal inhibitory response at a very low concentration”.
Turning to `CC(=O)N1CCc2c([nH]c3ccc(OCc4ccccc4)cc23)C1C` (stereo not drawn) [Example #7, 1-Methyl-2-N-Acetyl-6-Benzyloxy-1,2,3,4-Tetrahydro-β-Carboline], in the series with Hs0578t cells [1], the “inhibition of Hs0578t cell growth” value is “All concentrations of these compounds were inhibitory to cell growth, with the exception of Example #7 at 10^-11 M” and the IC50 was approximately 10 nM. Also, in the series with MCF-7 cells [2], the “inhibition of MCF-7 cell growth” value is listed as “All concentrations of Example #7 were inhibitory” and the “potency relative to melatonin (times more potent), MCF-7 cell growth” value is 100 times. The Emax at 1 fM in the series with MCF-7 cells [2] (Homo sapiens, MCF7, at 10^-15 M, read-out: maximal effect, inhibition (MCF-7 cell growth)) amounted to 37%.
For the molecule `CC(=O)NCCc1c[nH]c2ccccc12` [N-acetyltryptamine], in the series with frog skin, the “melatonin blocking activity (frog skin lightening)” value is given as “melatonin blocking activity”. Moreover, the “antagonism of inhibitory effect of melatonin in chicken retina” value in the series on chicken retina is “competitively antagonized the inhibitory effect of melatonin in the chicken retina”.
In the case of `COc1ccc2[nH]c(Cc3ccccc3)c(CCNC(C)=O)c2c1` [Example #4, 2-Benzyl-3-Ethylacetamido-5-Methoxyindole], in the series on Hs0578t cells [1], the “inhibition of Hs0578t cell growth” value was “inhibits Hs0578t cell growth at 10^-13 M and 10^-7 M”; the “comparative assessment of potency / maximal inhibition, Hs0578t cell growth” value was “appears to be the most potent inhibitor of Hs0578t cells”. Besides, in the series with MCF-7 cells [2], the “inhibition of MCF-7 cell growth” value is “All concentrations of Example #4 were inhibitory to cell growth” and the “potency relative to melatonin (times more potent), MCF-7 cell growth” value is 60 times.
For `COc1ccc2[nH]c3c(c2c1)CCN(C(C)=O)C3C` (stereo not drawn) [Example #3, 1-Methyl-2-N-Acetyl-6-Methoxy-1,2,3,4-Tetrahydro-β-Carboline], in the series on Hs0578t cells [1], the “inhibition of Hs0578t cell growth” value is “All concentrations of these compounds were inhibitory to cell growth”. The “inhibition of MCF-7 cell growth” value with MCF-7 cells [2] was “inhibited MCF-7 cell growth at all concentrations”.

The values are drawn from patent publication US5314908A, “Compounds useful as antiproliferative agents” (Whitby Research, Inc., priority 1992, dated 1994).
